The source made the active and inactive calls. The rule behind the calls is not given here.
Assays:
[1] = molecular target: T1, Prostaglandin G/H synthase 1 (Ovis aries) (UniProt P05979); assay: Reversible binding to ram seminal vesicle COX1 at 300 uM at 600 MHz and 37 degC by saturation transfer difference 1[H]NMR spectroscopy
T1 sequence (whole entry): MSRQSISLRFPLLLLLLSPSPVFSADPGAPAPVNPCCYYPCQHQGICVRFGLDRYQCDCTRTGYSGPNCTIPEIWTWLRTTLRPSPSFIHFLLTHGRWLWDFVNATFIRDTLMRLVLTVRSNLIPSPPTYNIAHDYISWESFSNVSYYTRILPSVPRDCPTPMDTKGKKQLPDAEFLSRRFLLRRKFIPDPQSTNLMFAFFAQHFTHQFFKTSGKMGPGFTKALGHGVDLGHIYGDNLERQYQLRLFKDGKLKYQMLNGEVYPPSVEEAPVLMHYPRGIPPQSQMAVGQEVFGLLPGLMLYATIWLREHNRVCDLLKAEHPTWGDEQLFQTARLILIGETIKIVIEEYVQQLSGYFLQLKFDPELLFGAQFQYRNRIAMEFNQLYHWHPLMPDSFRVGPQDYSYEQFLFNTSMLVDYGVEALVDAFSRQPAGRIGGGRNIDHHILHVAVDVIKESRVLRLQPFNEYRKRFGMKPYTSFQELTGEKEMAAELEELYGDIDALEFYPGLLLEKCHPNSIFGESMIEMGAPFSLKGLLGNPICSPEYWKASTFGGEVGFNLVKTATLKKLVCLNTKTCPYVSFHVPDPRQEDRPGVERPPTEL

[2] = molecular target: T2, Prostaglandin G/H synthase 2 (Homo sapiens, UniProt P35354); assay: Instantaneous inhibition of human COX2 measured immediately after incubation of enzyme with compound
T2 sequence (P35354 whole entry): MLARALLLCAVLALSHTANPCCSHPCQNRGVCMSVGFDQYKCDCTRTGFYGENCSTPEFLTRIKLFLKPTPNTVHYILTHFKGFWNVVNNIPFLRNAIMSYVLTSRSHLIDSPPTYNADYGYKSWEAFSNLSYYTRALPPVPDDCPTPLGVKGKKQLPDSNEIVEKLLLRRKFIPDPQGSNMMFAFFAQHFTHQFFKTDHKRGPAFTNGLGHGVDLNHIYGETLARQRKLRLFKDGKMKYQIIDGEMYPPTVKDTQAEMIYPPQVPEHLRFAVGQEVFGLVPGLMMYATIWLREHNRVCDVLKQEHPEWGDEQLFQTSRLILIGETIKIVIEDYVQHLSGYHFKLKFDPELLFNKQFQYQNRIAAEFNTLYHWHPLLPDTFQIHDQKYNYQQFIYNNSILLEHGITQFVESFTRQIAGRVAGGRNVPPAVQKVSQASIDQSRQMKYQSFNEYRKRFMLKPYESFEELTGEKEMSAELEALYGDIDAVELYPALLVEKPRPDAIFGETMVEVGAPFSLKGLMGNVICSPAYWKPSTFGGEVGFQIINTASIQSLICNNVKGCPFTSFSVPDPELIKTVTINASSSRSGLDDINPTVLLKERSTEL

[3] = molecular target: T2, Prostaglandin G/H synthase 2; assay: Inhibition of human COX2 measured after pre-incubation of enzyme with compound

O=C(O)Cc1ccccc1Nc1c(Cl)cccc1Cl
Activity [1]: Active

CC(C)Cc1ccc(C(C)C(=O)O)cc1 (stereo not given)
Activity [1]: Active

O=C(c1ccccc1)c1ccc2n1CCC2C(=O)O (racemic) [KETOROLAC TROMETHAMINE]
Activity [1]: Active | IC50 [2]: 60.5 µM | IC50 [3]: 0.12 µM
